The IC50 is the concentration that gives 50% inhibition.

IC50 data for 27 compounds are collected here from patent US8138168B1 (Takeda Pharmaceutical Company Limited, priority 2007, dated 2012).

The target in this test is T1, Recombinant human renin (Homo sapiens, UniProt P00797).
T1 construct: isolate the active form (residues 67-406); made in house; host or cells: FreeStyle 293-F cells (transient expression of pcDNA3.1(+)/hREN)
T1 sequence (P00797 67-406): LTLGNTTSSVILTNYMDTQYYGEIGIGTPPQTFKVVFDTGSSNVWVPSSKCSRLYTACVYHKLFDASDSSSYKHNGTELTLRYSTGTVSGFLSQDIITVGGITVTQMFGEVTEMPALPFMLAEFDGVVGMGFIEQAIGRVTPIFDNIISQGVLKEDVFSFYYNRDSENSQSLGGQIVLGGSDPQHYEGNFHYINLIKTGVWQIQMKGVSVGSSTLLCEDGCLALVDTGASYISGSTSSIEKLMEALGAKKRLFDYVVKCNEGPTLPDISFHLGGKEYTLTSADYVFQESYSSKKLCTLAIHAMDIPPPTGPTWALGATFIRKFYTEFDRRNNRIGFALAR
The test can be described thus: In vitro enzymatic activity assay of renin inhibitors (fluorogenic peptide substrate). In kind it is biochemical. The settings on record: read-out: IC50 of Exemplified Compounds Against Renin. As for the experimental part: Test compounds in varying concentrations may be reacted with recombinant human renin in the presence of substrate, e.g., QXL520-γ-Abu-[…](HiLyteFluo488)-Arg-OH (Anaspec, San Jose, Calif.). […] Inhibition constants (IC50) may be calculated by non-linear curve fitting of the compound concentrations and fluorescence intensities to the standard IC50 equation.
Solutions of test compounds in varying concentrations mM final concentration) are prepared in dimethyl sulfoxide (DMSO) and then diluted into assay buffer comprising 50 mM Hepes, 1 mM EDTA, 1 mM DTT, 0.1 mg/mL BSA, 0.01% Brij35, pH 7.4. Alternatively, the assay can be performed with a high BSA concentration, wherein the buffer contains an additional 2% BSA.
Recombinant human renin (3 nM final concentration) is added to the dilutions and pre-incubated with the compounds for 10 minutes at 37° C. […] After pre-incubation, the reaction is initiated with of substrate QXL520-γ-Abu-[…](HiLyteFluo488)-Arg-OH (Anaspec, San Jose, Calif.). The final DMSO in the assay is 5%. The total volume of the reaction mixture is 20 μL, which can be placed on Greiner 384-well small volume plates.
The fluorescence intensity is determined upon the addition of substrate and determined again after incubation at 37° C. for one hour. The fluorescence intensity of a blank (no inhibition) using vehicle alone is also determined. Renin activity is linearly proportional to the change in fluorescence observed (final-initial).
For the compound `CNC(Cc1ccccc1)C(=O)N1CCCC(c2nc3ccccc3[nH]2)C1` (stereo not drawn) [Compound 64, 1-(3-(1H-benzo[d]imidazol-2-yl)piperidin-1-yl)-2-(methylamino)-3-phenylpropan-1-one], the IC50 is more than 1000 nM. For `COCCCn1c(C2CCCN(C(=O)C[C@@H](N)c3ccccc3)C2)nc2ccccc21` (stereo partly drawn) [Compound 65, (3R)-3-amino-1-(3-(1-(3-methoxypropyl)-1H-benzo[d]imidazol-2-yl)piperidin-1-yl)-3-phenylpropan-1-one], the IC50 was more than 1000 nM.

Take `COCCCn1c(C2CCCN(C(=O)C[C@H](N)c3ccccc3)C2)nc2ccccc21` (stereo partly drawn) [Compound 66, (3S)-3-amino-1-(3-(1-(3-methoxypropyl)-1H-benzo[d]imidazol-2-yl)piperidin-1-yl)-3-phenylpropan-1-one]: the IC50 was more than 1000 nM. For `COCCCn1c(C2CCCN(C(=O)C[C@@H](N)Cc3ccc(Cl)cc3)C2)nc2ccccc21` (stereo partly drawn) [Compound 67, (3S)-3-amino-4-(4-chlorophenyl)-1-(3-(1-(3-methoxypropyl)-1H-benzo[d]imidazol-2-yl)piperidin-1-yl)butan-1-one], the concentration for half-maximal inhibition (IC50) was more than 1000 nM.

For `COCCCn1c([C@H]2CCCN(C(=O)C[C@H](N)Cc3ccc(Cl)cc3)C2)nc2ccccc21` [Compound 68, (R)-3-amino-4-(4-chlorophenyl)-1-((S)-3-(1-(3-methoxypropyl)-1H-benzo[d]imidazol-2-yl)piperidin-1-yl)butan-1-one], the 50% inhibitory concentration (IC50) is more than 1000 nM. In the case of `COCCCn1c([C@@H]2CCCN(C(=O)C[C@@H](N)Cc3ccc(Cl)cc3)C2)nc2ccccc21` [Compound 69, (S)-3-amino-4-(4-chlorophenyl)-1-((R)-3-(1-(3-methoxypropyl)-1H-benzo[d]imidazol-2-yl)piperidin-1-yl)butan-1-one] it was more than 1000 nM.

Take `COCCCn1c([C@H]2CCCN(C(=O)C[C@@H](N)Cc3ccc(Cl)cc3)C2)nc2ccccc21` [Compound 70, (S)-3-amino-4-(4-chlorophenyl)-1-((S)-3-(1-(3-methoxypropyl)-1H-benzo[d]imidazol-2-yl)piperidin-1-yl)butan-1-one]: the IC50 is more than 1000 nM. With `N[C@@H](CC(=O)N1CCC[C@@H](c2nc3ccccc3[nH]2)C1)Cc1ccc(-c2ccccc2)cc1` [Compound 71, (R)-1-((R)-3-(1H-benzo[d]imidazol-2-yl)piperidin-1-yl)-3-amino-4-(biphenyl-4-yl)butan-1-one], the half-inhibitory concentration (IC50) is more than 1000 nM.

In the case of `COCCCn1c([C@@H]2CCCN(C(=O)C[C@H](N)Cc3ccc4ccccc4c3)C2)nc2ccccc21` [Compound 74, (R)-3-amino-1((R)-3-(1-(3-methoxypropyl)-1H-benzo[d]imidazol-2-yl)piperidin-1-yl)-4-(naphthalen-2-yl)butan-1-one], the half-inhibitory concentration (IC50) was less than 100 nM.

For `COCCCn1c([C@@H]2CCCN(C(=O)C[C@H](N)Cc3ccc(Cl)cc3)C2)nc2ccccc21` [Compound 75, (R)-3-amino-4-(4-chlorophenyl)-1((R)-3-(1-(3-methoxypropyl)-1H-benzo[d]imidazol-2-yl)piperidin-1-yl)butan-1-one], the half-inhibitory concentration (IC50) is 100 to 1000 nM. For `COCCCn1c([C@@H]2CCCN(C(=O)C[C@H](N)Cc3ccc(F)c(F)c3)C2)nc2ccccc21` [Compound 76, (R)-3-amino-4-(3,4-difluorophenyl)-1((R)-3-(1-(3-methoxypropyl)-1H-benzo[d]imidazol-2-yl)piperidin-1-yl)butan-1-one] the value was 100 to 1000 nM; for `COCCCn1c([C@@H]2CCCN(C(=O)C[C@H](N)Cc3ccc(Cl)c(Cl)c3)C2)nc2ccccc21` [Compound 77, (R)-3-amino-4-(3,4-dichlorophenyl)-1((R)-3-(1-(3-methoxypropyl)-1H-benzo[d]imidazol-2-yl)piperidin-1-yl)butan-1-one], 100 to 1000 nM. For `COCCCn1c([C@@H]2CCCN(C(=O)C[C@H](N)Cc3ccncc3)C2)nc2ccccc21` [Compound 78, (R)-3-amino-1-((R)-3-(1-(3-methoxypropyl)-1H-benzo[d]imidazol-2-yl)piperidin-1-yl)-4-(pyridin-4-yl)butan-1-one] the value was more than 1000 nM; for `COCCCn1c([C@@H]2CCCN(C(=O)C[C@H](N)Cc3cccc(Cl)c3)C2)nc2ccccc21` [Compound 79, (R)-3-amino-4-(3-chlorophenyl)-1((R)-3-(1-(3-methoxypropyl)-1H-benzo[d]imidazol-2-yl)piperidin-1-yl)butan-1-one], 100 to 1000 nM; for `COCCCn1c([C@@H]2CCCN(C(=O)C[C@H](N)c3cccc(Br)c3)C2)nc2ccccc21` [Compound 80, (S)-3-amino-3-(3-bromophenyl)-1((R)-3-(1-(3-methoxypropyl)-1H-benzo[d]imidazol-2-yl)piperidin-1-yl)propan-1-one], 100 to 1000 nM. For `COCCCn1c([C@@H]2CCCN(C(=O)C[C@H](N)Cc3ccc4ccccc4c3)C2)nc2cc(Cl)c(Cl)cc21` [Compound 81, (R)-3-amino-1((R)-3-(5,6-dichloro-1-(3-methoxypropyl)-1H-benzo[d]imidazol-2-yl)piperidin-1-yl)-4-(naphthalen-2-yl)butan-1-one] the value was 100 to 1000 nM.

As for `COCCCn1c([C@@H]2CCCN(C(=O)C[C@H](N)Cc3cccnc3)C2)nc2ccccc21` [Compound 82, (R)-3-amino-1((R)-3-(1-(3-methoxypropyl)-1H-benzo[d]imidazol-2-yl)piperidin-1-yl)-4-(pyridin-3-yl)butan-1-one], the 50% inhibitory concentration (IC50) was more than 1000 nM. As to `COCCCn1c([C@@H]2CCCN(C(=O)C[C@H](N)c3cccc(Cl)c3)C2)nc2ccccc21` [Compound 83, (S)-3-amino-3-(3-chlorophenyl)-1((R)-3-(1-(3-methoxypropyl)-1H-benzo[d]imidazol-2-yl)piperidin-1-yl)propan-1-one], the IC50 is more than 1000 nM. Take `COCCCn1c([C@@H]2CCCN(C(=O)C[C@H](N)c3cccc(C(F)(F)F)c3)C2)nc2ccccc21` [Compound 84, (S)-3-amino-1-((R)-3-(1-(3-methoxypropyl)-1H-benzo[d]imidazol-2-yl)piperidin-1-yl)-3-(3-(trifluoromethyl)phenyl)propan-1-one]: the IC50 lay in the range of 100 to 1000 nM. For `COCCCn1c([C@@H]2CCCN(C(=O)C[C@H](N)c3cccc(C#N)c3)C2)nc2ccccc21` [Compound 85, 3-((S)-1-amino-3-((R)-3-(1-(3-methoxypropyl)-1H-benzo[d]imidazol-2-yl)piperidin-1-yl)-3-oxopropyl)benzonitrile], the 50% inhibitory concentration (IC50) was more than 1000 nM. In the case of `COCCCn1c([C@@H]2CCCN(C(=O)C[C@H](N)Cc3cc(F)c(F)cc3F)C2)nc2ccccc21` [Compound 86, (R)-3-amino-1((R)-3-(1-(3-methoxypropyl)-1H-benzo[d]imidazol-2-yl)piperidin-1-yl)-4-(2,4,5-trifluorophenyl)butan-1-one], the IC50 lay in the range of 100 to 1000 nM. Consider `COCCCn1c([C@@H]2CCCN(C(=O)C[C@H](N)Cc3ccccc3)C2)nc2ccccc21` [Compound 87, (R)-3-amino-1((R)-3-(1-(3-methoxypropyl)-1H-benzo[d]imidazol-2-yl)piperidin-yl)-4-phenylbutan-1-one], for which the concentration for half-maximal inhibition (IC50) lay in the range of 100 to 1000 nM. For `COCCCn1c([C@@H]2CCCN(C(=O)C[C@H](N)COCc3ccccc3)C2)nc2ccccc21` [Compound 88, (S)-3-amino-4-(benzyloxy)-1-((R)-3-(1-(3-methoxypropyl)-1H-benzo[d]imidazol-2-yl)piperidin-1-yl)butan-1-one] the value was more than 1000 nM; for `COCCCn1c([C@@H]2CCCN(C(=O)C[C@H](N)c3ccccc3)C2)nc2ccccc21` [Compound 89, (S)-3-amino-1((R)-3-(1-(3-methoxypropyl)-1H-benzo[d]imidazol-2-yl)piperidin-1-yl)-3-phenylpropan-1-one], more than 1000 nM. Take `COCCCn1c([C@@H]2CCCN(C(=O)C[C@H](N)Cc3ccc(C(C)(C)C)cc3)C2)nc2ccccc21` [Compound 90, (R)-3-amino-4-(4-tert-butylphenyl)-1((R)-3-(1-(3-methoxypropyl)-1H-benzo[d]imidazol-2-yl)piperidin-1-yl)butan-1-one]: the IC50 was less than 100 nM. For the compound `COCCCn1c([C@@H]2CCCN(C(=O)C[C@H](N)Cc3ccc(Br)cc3)C2)nc2ccccc21` [Compound 91, (R)-3-amino-4-(4-bromophenyl)-1((R)-3-(1-(3-methoxypropyl)-1H-benzo[d]imidazol-2-yl)piperidin-1-yl)butan-1-one], the 50% inhibitory concentration (IC50) lay in the range of 100 to 1000 nM. For the compound `COCCCn1c([C@@H]2CCCN(C(=O)[C@H](O)[C@H](N)c3ccccc3)C2)nc2ccccc21` [Compound 92, (2R,3R)-3-amino-2-hydroxy-1-((R)-3-(1-(3-methoxypropyl)-1H-benzo[d]imidazol-2-yl)piperidin-1-yl)-3-phenylpropan-1-one], the half-maximal inhibitory concentration (IC50) was 100 to 1000 nM.
